Test results published in patent US12728118B2, “Methods and compositions for the treatment of corneal endothelium disorders” (The Schepens Eye Research Institute, Inc., priority 2020, dated 2026).
“Also recorded” adds a separate entry of the source.

Tests used:
HCEnC-21T cells = experiment: LA-qPCR DNA lesion analysis in HCEnC-21T cells treated with 4-OHE2; assay type: cell-based, human; conditions: 15 μM 4-OHE2; 24 h
Description: (§1) Human Corneal Endothelial Cell Culture. Telomerase and SV40 T antigen immortalized normal human CE cell lines HCEnC-21T and HCEnC-SV-67F-16, respectively, were previously generated in our laboratory (26, 62). HCEnC-21T cells were seeded in estrogen-free medium (phenol red-free OptiMEM-I; Thermo Fisher Scientific) with charcoal stripped FBS (HyClone), 200 mg/L calcium chloride (Sigma-Aldrich), 0.08% chondroitin sulfate (Sigma-Aldrich) and treated with 15 μM 4-OHE2 (Steraloids) in phenol red-free OptiMEM-I. UVA Irradiation of Mouse Cornea. A UVA LED light source (M365LP1; Thorlabs) with an emission peak of 365 nm light, 9 nm bandwidth (FWHM) and irradiance of 398 mW/cm 2 was focused to illuminate a 4-mm-diameter spot onto the mouse cornea. The energy was measured using a laser sensor (model L49 [150A]; Ophir), and the time of UVA exposure was adjusted to deliver the appropriate fluence (10 min 29 s for 250 J/cm^2, 20 min 57 s for 500 J/cm^2, 31 min 26 s for 750 J/cm^2, and 41 min 54 s for 1,000 J/cm^2). The right eye (OD) was irradiated while the contralateral eye (OS) was covered with heat retention drapes (SpaceDrapes, Inc.) to serve as untreated control. […]
(§2) DNA Damage Analysis Using LA-qPCR. […] DNA lesion frequencies were calculated as described (24). […]

[1] = system: mouse corneal endothelial cell (MCEnC); experiment: UVA-induced FECD mouse model: corneal endothelial cell density (in vivo confocal HRT / ZO-1 immunostaining); conditions: for increase in MCEnC density vs 1,000 J/cm^2 UVA irradiation only / MCEnC density: 2 mo, 1,000 J/cm^2 UVA; for increase in MCEnC density vs 1,000 J/cm^2 UVA irradiation only: NAC in drinking water 1 g/kg from 1 d prior
Description: (§3) Experimental Animals. C57BL/6 wild-type mice (male and female, 7 to 15 wk old; The Jackson Laboratory or Charles River) were used for this study. Mice were housed in a climate-controlled animal facility at the Schepens Eye Research Institute (Boston) and kept under cyclic light conditions with 12 h ON or OFF. Mice were anesthetized with a combined dose of ketamine (100 mg/kg) and xylazine (20 mg/kg) administered intraperitoneally. Female mice were irradiated at proestrus stage (61). For the NAC-treated group, mice were fed daily with drinking water containing 1 g of NAC/kg body weight from 1 d prior up to 3 mo post-UVA. All animal experiments were approved by the Institutional Animal Care and Use Committee and adhered to the ARVO Statement for the Use of Animals in Ophthalmic and Vision Research.
Human Corneal Endothelial Cell Culture. Telomerase and SV40 T antigen immortalized normal human CE cell lines HCEnC-21T and HCEnC-SV-67F-16, respectively, were previously generated in our laboratory (26, 62). HCEnC-21T cells were seeded in estrogen-free medium (phenol red-free OptiMEM-I; Thermo Fisher Scientific) with charcoal stripped FBS (HyClone), 200 mg/L calcium chloride (Sigma-Aldrich), 0.08% chondroitin sulfate (Sigma-Aldrich) and treated with 15 μM 4-OHE2 (Steraloids) in phenol red-free OptiMEM-I. UVA Irradiation of Mouse Cornea. A UVA LED light source (M365LP1; Thorlabs) with an emission peak of 365 nm light, 9 nm bandwidth (FWHM) and irradiance of 398 mW/cm 2 was focused to illuminate a 4-mm-diameter spot onto the mouse cornea. The energy was measured using a laser sensor (model L49 [150A]; Ophir), and the time of UVA exposure was adjusted to deliver the appropriate fluence (10 min 29 s for 250 J/cm^2, 20 min 57 s for 500 J/cm^2, 31 min 26 s for 750 J/cm^2, and 41 min 54 s for 1,000 J/cm^2). The right eye (OD) was irradiated while the contralateral eye (OS) was covered with heat retention drapes (SpaceDrapes, Inc.) to serve as untreated control. Mouse eyeballs from CYP1B1-null mice (age 8 to 12 wk, 10 females and 10 males) (31) were enucleated, rinsed with phosphate-buffered saline (PBS), and transported on ice, and cornea excision was performed within 24 h of the animal's death. Four 12-inch RPR-3500A UVA tubes (The Southern New England UV Co.) emitting 350 nm light (irradiance: 7.13 mW/cm 2) were used to irradiate the corneoscleral buttons placed in sterile PBS, with the endothelial side facing the source. The fluence delivered was 25 J/cm^2 (58 min 24 s at a distance of 10 cm). Irradiated corneas were snap-frozen, homogenized using a tissue grinder, and dissolved in methanol:water (2:1) for estrogen metabolite analysis.
The mouse was wrapped with heat retention drapes on the platform that holds the mouse body securely for imaging CE cells by laser scanning IVCM using the Heidelberg Retina Tomograph III (HRT III) with Rostock Corneal Module (RCM) (Heidelberg Engineering). The laser confocal microscope acquires 2D images that represent a coronal section of the cornea of 400×400 μm (160,000 μm^2) at a selectable corneal depth. Acquired images comprise 384×384 pixels and with a lateral resolution of 1 μm per pixel. Digital images were stored on a computer workstation at 3 frames per second.
Analysis of CE Cell Density. The CE density of HRT images acquired before UVA and post-UVA at 2 wk and 1 and 2 mo was analyzed by a semiautomated cell counter in the software Heidelberg Eye Explorer, version 1.3.0 (Heidelberg Engineering GmbH) inbuilt in HRT3. The mean cell density was calculated from 3 mice whose HRT images were counted by at least 2 observers. For each image, an area with at least 50 cells was selected. For CE density calculated from the images of 3 mice with ZO-1 immunostaining, cell count was performed manually by 2 blinded observers using a plug-in for ImageJ 1.46r (https://imagescience.org/meijering/software/imagescience; provided in the public domain by Wayne Rasband, NIH). […]

mouse cornea = experiment: UVA-induced FECD mouse model: central corneal thickness (CCT) by OCT; assay type: in vivo
Description: as §3, §1
In vivo Imaging. […] CCT was measured using inbuilt software.

mouse aqueous humor = experiment: ROS production assay (H2O2, Amplex Red) in mouse aqueous humor after UVA; assay type: in vivo; conditions: 1 d post-UVA
Description: as §3, with “All animal experiments were approved by the Institutional Animal Care and Use Committee and adhered to the ARVO Statement for the Use of Animals in Ophthalmic and Vision Research.” left out
(§4) Human Corneal Endothelial Cell Culture. […] The energy was measured using a laser sensor (model L49 [150A]; Ophir), and the time of UVA exposure was adjusted to deliver the appropriate fluence (10 min 29 s for 250 J/cm^2, 20 min 57 s for 500 J/cm^2, 31 min 26 s for 750 J/cm^2, and 41 min 54 s for 1,000 J/cm^2). […]
ROS Production Assay. Extracellular H2O2 levels in the mouse aqueous humor (3 μL), collected using a capillary needle from the dilated mouse anterior chamber, were detected using the Amplex Red Assay Kit (Molecular Probes, Life Technologies) according to manufacturer's instructions. Fluorescence was measured with excitation and emission at 550 and 590 nm, respectively, using a microplate reader (Bio-Tek) with Gen5 software at 37° C.

MCEnCs = experiment: TUNEL assay on whole mount mouse CE after UVA; assay type: in vivo; conditions: females and males; 3 mo post-UVA
Description: as §3
as §4, with “Culture. Telomerase and SV40 T antigen immortalized normal human CE cell lines HCEnC-21T and HCEnC-SV-67F-16, respectively, were previously generated in our laboratory (26, 62).” for “Culture.”

MCEnC mtDNA and nDNA = experiment: DNA damage analysis using LA-qPCR in MCEnCs after UVA; assay type: in vivo, mouse; conditions: 1,000 J/cm^2 UVA at 3 mo
Description: as §3
as §4, with “Culture. Telomerase and SV40 T antigen immortalized normal human CE cell lines HCEnC-21T and HCEnC-SV-67F-16, respectively, were previously generated in our laboratory (26, 62).” for “Culture.”
as §2

[2] = system: corneal endothelial (CE) cell; experiment: UVA-induced corneal endothelial cell loss in female mice, CYP1B1 inhibitor treatment; assay type: in vivo, mouse
Description: FIG. 12. […] TMS was injected intraperitoneally (1.5 mg/kg) in female mice 1 h prior to 500 J/cm^2 UVA and 3 times a week thereafter for two weeks. Mice similarly injected with DMSO served as the control (n=5; white bar).

[3] = system: corneal endothelial cell (CEnC); experiment: UVA light-induced CEnC loss in NQO1+/+ and NQO1−/− female mice (mouse model of FECD), HRT imaging; assay type: in vivo
Description: A mouse model of FECD was generated by knocking out the NQO1 gene. […] NQO1+/+ and NQO1−/− female mice were irradiated with UVA (500 J/cm^2; time: 20 minutes) to initiate CEnC loss. Either TMS (1 mg/kg) or DMSO (vehicle) was intraperitoneally injected three times a week post-UVA irradiation until week 2 (FIG. 13A). Central corneal thickness (CCT) and Corneal endothelium (CE) imaging was performed using anterior segment-optical coherence tomography (OCT) and Heidelberg Retina Tomograph III (HRT III) prior to UVA irradiation and then at day 1, week 1, week 2, and week 4 post-UVA irradiation. The CE density (cells/mm^2) was quantified by a semi-automated cell counter inbuilt in HRT machine. A mouse model of FECD was generated by knocking out the NQO1 gene. […] NQO1+/+ and NQO1−/− female mice were irradiated with UVA (500 J/cm^2; time: 20 minutes) to initiate CEnC loss. Either berberine (10 mg/kg) or Vehicle (90% PBS+5% Tween-80+5% polyethylene glycol) was intraperitoneally injected immediately after and at week 1 post-UVA irradiation (FIG. 14A). Central corneal thickness (CCT) and corneal endothelium (CE) imaging was performed using anterior segment-optical coherence tomography (AS-OCT) and Heidelberg Retina Tomograph III (HRT III) prior to UVA irradiation and then at day 1, week 1, and week 2, post-UVA irradiation. The CE density (cells/mm^2) was quantified by a semi-automated cell counter inbuilt in HRT machine.

## C[C@]12CC[C@@H]3c4ccc(O)c(O)c4CC[C@H]3[C@@H]1CC[C@@H]2O [4-OHE2, 4-hydroxyestradiol]
HCEnC-21T cells
  DNA lesions in the nuclear encoded β-globin gene: 0.46 DNA lesions per 10 kb
  mtDNA lesions: 0.65 DNA lesions per 10 kb

## CC(=O)N[C@@H](CS)C(=O)O [NAC, N-acetylcysteine]
[1]; UVA 1000 J/cm^2, in vivo (FIG. 10)
  morphological and molecular changes induced by UVA: rescued
[1]; females
  increase in MCEnC density vs 1,000 J/cm^2 UVA irradiation only: 1.7 fold
[1]; females, no-NAC 855±115
  MCEnC density: 1,521±313 cells per square millimeter
[1]; male and female, 3 mo after UVA, ZO-1 immunostaining
  endothelial cell density: significantly rescued
[1]; males
  increase in MCEnC density vs 1,000 J/cm^2 UVA irradiation only: 1.6 fold
[1]; males, no-NAC 944±136
  MCEnC density: 1,560±136 cells per square millimeter
Mouse cornea; 1 to 3 mo after 1,000 J/cm^2 UVA
  CCT: remained close to the untreated baseline
Mouse cornea; females, 1, 2, and 3 mo after 1,000 J/cm^2 UVA
  CCT vs 1,000 J/cm^2 treated females: significant decrease in CCT
Mouse cornea; males, 2 wk and 1 and 3 mo after 1,000 J/cm^2 UVA
  CCT vs 1,000 J/cm^2 treated males: significant decrease in CCT
Mouse aqueous humor
  ROS formed due to UVA (H2O2 in aqueous humor): significantly reduced
MCEnCs
  TUNEL-positive cells vs non-NAC-treated UVA irradiated mice: significantly less TUNEL-positive cells
MCEnC mtDNA and nDNA; both sexes
  nDNA damage: significantly rescued
MCEnC mtDNA and nDNA; females
  mtDNA damage: persisted

## COc1cc(/C=C/c2ccc(OC)cc2OC)cc(OC)c1 [TMS, trans-2,3′,4,5′-tetramethoxystilbene]
[2]; 1 week, 2 weeks and 1 month post 500 J/cm^2, 1.5 mg/kg intraperitoneally 1 h prior and 3 times a week for two weeks, vs DMSO, p<0.05
  corneal endothelial cell loss: Rescue of corneal endothelial cell loss
[2]; mouse model of FECD, in vivo (FIGS. 11 and 12)
  endothelial cell degeneration / UVA-induced corneal endothelial cell loss: delayed the endothelial cell degeneration; also recorded: Rescue of UVA-induced corneal endothelial cell loss
[3]; NQO1+/+ and NQO1−/− female mice, TMS 1 mg/kg ip three times a week, weeks 2 and 4 post-UVA 500 J/cm^2
  morphology of CEnC vs vehicle: less irregular morphology
[3]; NQO1+/+ and NQO1−/− female mice, TMS 1 mg/kg ip, weeks 2 and 4 post-UVA 500 J/cm^2
  CEnC number vs vehicle: higher CEnC number; also recorded: reduces CEnC loss

## COc1ccc2cc3[n+](cc2c1OC)CCc1cc2c(cc1-3)OCO2 [berberine]
[3]; NQO1+/+ and NQO1−/− female mice, berberine 10 mg/kg ip, week 2 post-UVA 500 J/cm^2
  morphology of CEnC vs vehicle: less irregular morphology
[3]; NQO1+/+ females, berberine 10 mg/kg ip, week 2 post-UVA
  CEnC number vs vehicle: trend towards higher CEnC number
[3]; NQO1−/− females, berberine 10 mg/kg ip, week 2 post-UVA
  CEnC number vs vehicle: significantly higher CEnC number
[3]; berberine 10 mg/kg, mouse model of Fuchs Dystrophy (FIG. 14 title)
  UVA light-induced CEnC loss: rescues UVA light-induced CEnC loss
